Active and inactive are the calls of the source. The calls are words filed in the database; no cut-off is given here.
Experiments:
in vitro = settings: human, liver microsomes
Description: Stability in human liver microsomes assessed as parent compound remaining at 1 uM incubated for 60 mins in presence of NADPH by LC-MS/MS analysis

[1] = Clearance in BALB/c mouse at 5 mg/kg, po measured during 0.083 to 24 hrs post dose by LC-MS/MS analysis; assay type: ADME, organism-based; settings: in vivo, time 0.083-24 hrs
Mus musculus [2] = test: Antifibrotic activity in BALB/c mouse model of BLM-induced systemic sclerosis assessed as reduction in alpha-SMA expression at 1 to 5 mg/kg, sc dosed once daily for 4 weeks by immunohistochemical analysis; assay type: functional, organism-based; settings: dose 1-5 mg/kg
[3] = AUC (0 to infinity) in BALB/c mouse at 1 mg/kg, iv measured during 0.083 to 24 hrs post dose by LC-MS/MS analysis; assay type: ADME, organism-based; parameters: route intravenous, time lower 0.083 hrs, dose 1 mg/kg, time upper 24 hrs; settings: in vivo
Cannabinoid receptor 1 [4] = biological target: T1, Cannabinoid receptor 1 (Homo sapiens, UniProt P21554); test: Agonist activity at human CB1 receptor expressing CHO cells co-expressing Galpha16 at 10 uM by calcium mobilization assay; assay type: functional, cell-based; settings: filed as agonist
Cannabinoid receptor 2 [5] = biological target: T2, Cannabinoid receptor 2 (Homo sapiens, UniProt P34972); test: Agonist activity at human CB2 receptor expressing CHO cells co-expressing Galpha16 by calcium mobilization assay relative to CP55940; assay type: functional, cell-based; settings: filed as agonist
Cannabinoid receptor 1 [6] = biological target: T1, Cannabinoid receptor 1; test: Agonist activity at human CB1 receptor expressed in HEK293 cells after 24 hrs by luciferase reporter gene assay based Tango beta-arrestin recruitment method; assay type: cell-based
Cannabinoid receptor 1 [7] = biological target: T1, Cannabinoid receptor 1; test: Agonist activity at human CB1 receptor expressing CHO cells co-expressing Galpha16 by calcium mobilization assay relative to CP55940; assay type: functional, cell-based
Cannabinoid receptor 2 [8] = biological target: T2, Cannabinoid receptor 2; test: Agonist activity at human CB2 receptor expressed in HEK293 cells after 24 hrs by luciferase reporter gene assay based Tango beta-arrestin recruitment method; assay type: cell-based
Mus musculus [9] = test: Antifibrotic activity in BALB/c mouse model of BLM-induced systemic sclerosis assessed as reduction in alpha-SMA mRNA expression at 1 to 5 mg/kg, sc dosed once daily for 4 weeks by quantitative real-time PCR analysis; assay type: functional, organism-based; settings: dose 1-5 mg/kg
Mus musculus [10] = test: Antifibrotic activity in BALB/c mouse model of BLM-induced systemic sclerosis assessed as reduction in TGF-beta mRNA expression at 1 to 5 mg/kg, sc dosed once daily for 4 weeks by quantitative real-time PCR analysis; assay type: functional, organism-based; settings: dose 1-5 mg/kg
[11] = biological target: Prostaglandin E2 receptor EP4 subtype (Homo sapiens) (UniProt P35408); test: Antagonist activity at EP2 (unknown origin) at 10 uM
Mus musculus [12] = test: Antifibrotic activity in BALB/c mouse model of BLM-induced systemic sclerosis assessed as reduction in dermal pathological symptoms at 1 to 5 mg/kg, sc dosed once daily for 4 weeks by H and E staining based analysis; assay type: functional, organism-based; settings: dose 1-5 mg/kg
Cannabinoid receptor 1 [13] = biological target: T1, Cannabinoid receptor 1; test: Induction of receptor desensitization at human CB1 receptor expressing CHO cells co-expressing Galpha16 at 10 uM followed by washing with HBSS buffer upon incubation for 10 mins and restimulated with CP55940 by calcium mobilization assay; assay type: functional, cell-based; settings: filed as agonist

T1 sequence (P21554 whole entry): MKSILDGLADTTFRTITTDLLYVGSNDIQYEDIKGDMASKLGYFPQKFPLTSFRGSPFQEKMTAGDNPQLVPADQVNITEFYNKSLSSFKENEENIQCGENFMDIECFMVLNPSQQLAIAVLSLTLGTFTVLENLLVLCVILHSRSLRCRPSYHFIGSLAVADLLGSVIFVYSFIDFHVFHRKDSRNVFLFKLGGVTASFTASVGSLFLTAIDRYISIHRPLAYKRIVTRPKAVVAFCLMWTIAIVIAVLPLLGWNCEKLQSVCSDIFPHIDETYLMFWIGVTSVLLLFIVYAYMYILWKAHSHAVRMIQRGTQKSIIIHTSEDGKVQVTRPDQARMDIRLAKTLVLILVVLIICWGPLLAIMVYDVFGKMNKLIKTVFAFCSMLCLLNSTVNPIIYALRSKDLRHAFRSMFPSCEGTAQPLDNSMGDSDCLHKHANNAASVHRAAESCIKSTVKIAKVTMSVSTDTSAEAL
T2 sequence (P34972 whole entry): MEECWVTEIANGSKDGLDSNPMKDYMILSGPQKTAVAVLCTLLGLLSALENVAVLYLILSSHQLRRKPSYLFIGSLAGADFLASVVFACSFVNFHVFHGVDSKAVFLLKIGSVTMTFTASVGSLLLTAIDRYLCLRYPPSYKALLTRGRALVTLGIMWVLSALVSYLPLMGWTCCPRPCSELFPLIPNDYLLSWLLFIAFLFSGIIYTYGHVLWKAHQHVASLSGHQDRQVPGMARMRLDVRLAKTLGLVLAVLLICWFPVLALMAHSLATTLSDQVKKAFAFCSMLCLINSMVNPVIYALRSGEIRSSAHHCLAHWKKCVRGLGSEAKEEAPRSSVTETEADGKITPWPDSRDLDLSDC
Chain of Prostaglandin E2 receptor EP4 subtype (Homo sapiens) (P35408 whole entry): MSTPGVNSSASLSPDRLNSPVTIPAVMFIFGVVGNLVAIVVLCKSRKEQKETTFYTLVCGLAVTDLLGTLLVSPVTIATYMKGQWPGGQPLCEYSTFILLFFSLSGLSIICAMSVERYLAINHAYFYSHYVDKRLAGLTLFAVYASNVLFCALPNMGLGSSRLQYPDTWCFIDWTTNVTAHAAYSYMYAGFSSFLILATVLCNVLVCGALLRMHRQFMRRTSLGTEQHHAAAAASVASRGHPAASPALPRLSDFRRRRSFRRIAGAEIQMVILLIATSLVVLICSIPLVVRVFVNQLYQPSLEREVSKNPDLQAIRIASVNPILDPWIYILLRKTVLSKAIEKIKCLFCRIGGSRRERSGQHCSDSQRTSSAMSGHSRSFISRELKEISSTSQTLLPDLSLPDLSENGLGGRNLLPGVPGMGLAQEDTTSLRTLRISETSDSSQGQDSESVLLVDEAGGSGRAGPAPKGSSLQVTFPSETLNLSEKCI

CC(C)(CO)NC(=O)c1cc(C(C)(C)C)n(-c2ccc(C(F)(F)F)cn2)n1
remaining at 1 h, 1 µM (in vitro): 64% | CL/F [1]: 51.7 mL/min/kg | Activity (Mus musculus [2]): Active | AUC(0-inf) [3]: 422 ng·h/mL | Activity (Cannabinoid receptor 1 [4]): Active | Emax (Cannabinoid receptor 2 [5]): 100% | EC50 (Cannabinoid receptor 1 [6]): > 10000 nM | Emax (Cannabinoid receptor 1 [7]): 30% | EC50 (Cannabinoid receptor 2 [8]): 562 nM | Activity (Mus musculus [9]): Active | Activity (Mus musculus [10]): Active | Activity [11]: inactive | Activity (Mus musculus [12]): Active | Activity (Cannabinoid receptor 1 [13]): Active

Reference: ChEMBL document CHEMBL4765487, “From a Designer Drug to the Discovery of Selective Cannabinoid Type 2 Receptor Agonists with Favorable Pharmacokinetic Profiles for the Treatment of Systemic Sclerosis” (J Med Chem, 2021)
